Experimental data as given in patent US9108978B2, “Antimicrobial compounds” (ADELAIDE RESEARCH & INNOVATION PTY LTD, priority 2011, dated 2015).
Where two headings read alike, the source gives them in different places.

Legend:
[1] = molecular target: biotin protein ligase from S. aureus (SaBPL) (Staphylococcus aureus, UniProt A0A3A5LBF0); test: BPL enzyme inhibition assay (3H-biotin incorporation), SaBPL; type: biochemical; settings: for IC50: 4 nM BPL, 20 minutes at 37° C.; for selectivity towards SaBPL over HsBPL (human BPL): Hs vs SaBPL
Chain of biotin protein ligase from S. aureus (SaBPL) (A0A3A5LBF0 1-323): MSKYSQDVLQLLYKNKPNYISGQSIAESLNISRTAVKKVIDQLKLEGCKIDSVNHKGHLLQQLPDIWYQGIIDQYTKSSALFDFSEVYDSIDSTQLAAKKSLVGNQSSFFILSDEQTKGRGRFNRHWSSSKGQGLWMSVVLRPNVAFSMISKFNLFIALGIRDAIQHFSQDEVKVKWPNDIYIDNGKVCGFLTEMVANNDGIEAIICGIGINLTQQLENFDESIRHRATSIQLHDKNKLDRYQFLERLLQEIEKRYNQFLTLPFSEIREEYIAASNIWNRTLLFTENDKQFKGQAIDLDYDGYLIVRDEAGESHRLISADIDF
Experimental: (§1) Quantitation of BPL catalysed ^3H-biotin incorporation into the biotin domain substrate was performed as previously described by Polyak et al, J. Biol. Chem (1999) 274(46) 32847-54. Briefly, the reaction mixture contained: 50 mM Tris HCl pH 8.0, 3 mM ATP, 4.5 μM biotin, 0.5 μM ^3H-biotin, 5.5 mM MgCl2, 100 mM KCl, 0.1 mg/mL BSA and 10 μM biotin domain of S. aureus pyruvate carboxylase. The reaction was initiated by the addition of BPL to a final concentration of 4 nM. After 20 minutes at 37° C., 4 μL aliquots of the reaction were spotted onto Whatman paper pre-treated with biotin and trichloroacetic acid. The filters were washed twice with 10% v/v ice-cold trichloroacetic acid and once with ethanol before air-drying. Quantitation of protein-bound radiolabelled biotin was performed by liquid scintillation. One unit of enzyme activity was defined by the amount of BPL required to incorporate 1 nmol of biotin per minute. The IC50 value of each compound was determined from a dose-response curve by varying the concentration of the inhibitor under the same enzyme concentration. The data was analysed with GraphPad Prism using a non-linear fit of log10 (inhibitor) vs. normalized response. The Ki, the absolute inhibition constant for a compound, was determined using Eq 1:
The mode of inhibition was investigated by varying the concentrations of inhibitor alongside varying the concentrations of ^3H-biotin. The data was plotted as double reciprocal plots and assessed using Lineweaver-Burk analysis.
Triazoles 6.02-6.10 were assayed for inhibitory activity against the biotin protein ligases from S. aureus (SaBPL), Escherichia coli (EcBPL) and Homo sapiens (HsBPL) (Table 3). The inhibitory activity of the compounds was determined by measuring BPL activity with varying concentrations of inhibitors. From the dose-response curves IC50 values were determined and Ki values calculated.

[2] = molecular target: biotin protein ligase from Escherichia coli (EcBPL) (Escherichia coli (strain K12), UniProt P06709); test: BPL enzyme inhibition assay (3H-biotin incorporation), EcBPL; type: biochemical
Chain of biotin protein ligase from Escherichia coli (EcBPL) (P06709 whole entry, looked up): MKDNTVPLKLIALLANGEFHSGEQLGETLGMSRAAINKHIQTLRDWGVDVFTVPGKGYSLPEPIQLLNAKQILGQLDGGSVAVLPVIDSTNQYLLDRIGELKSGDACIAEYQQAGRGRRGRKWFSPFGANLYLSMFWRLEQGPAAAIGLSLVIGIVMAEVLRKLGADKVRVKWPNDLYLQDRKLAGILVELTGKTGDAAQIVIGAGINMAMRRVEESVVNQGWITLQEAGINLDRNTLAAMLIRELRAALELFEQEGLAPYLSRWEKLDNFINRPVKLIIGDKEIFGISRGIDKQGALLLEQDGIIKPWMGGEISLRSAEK
Experimental: as §1
(§2) The inhibitory activity of the compounds was determined by measuring BPL activity with varying concentrations of inhibitors. From the dose-response curves IC50 values were determined and Ki values calculated.

[3] = molecular target: biotin protein ligase from Homo sapiens (HsBPL) (Homo sapiens (Human), UniProt P50747); test: BPL enzyme inhibition assay (3H-biotin incorporation), HsBPL; type: biochemical
Chain of biotin protein ligase from Homo sapiens (HsBPL) (P50747 whole entry): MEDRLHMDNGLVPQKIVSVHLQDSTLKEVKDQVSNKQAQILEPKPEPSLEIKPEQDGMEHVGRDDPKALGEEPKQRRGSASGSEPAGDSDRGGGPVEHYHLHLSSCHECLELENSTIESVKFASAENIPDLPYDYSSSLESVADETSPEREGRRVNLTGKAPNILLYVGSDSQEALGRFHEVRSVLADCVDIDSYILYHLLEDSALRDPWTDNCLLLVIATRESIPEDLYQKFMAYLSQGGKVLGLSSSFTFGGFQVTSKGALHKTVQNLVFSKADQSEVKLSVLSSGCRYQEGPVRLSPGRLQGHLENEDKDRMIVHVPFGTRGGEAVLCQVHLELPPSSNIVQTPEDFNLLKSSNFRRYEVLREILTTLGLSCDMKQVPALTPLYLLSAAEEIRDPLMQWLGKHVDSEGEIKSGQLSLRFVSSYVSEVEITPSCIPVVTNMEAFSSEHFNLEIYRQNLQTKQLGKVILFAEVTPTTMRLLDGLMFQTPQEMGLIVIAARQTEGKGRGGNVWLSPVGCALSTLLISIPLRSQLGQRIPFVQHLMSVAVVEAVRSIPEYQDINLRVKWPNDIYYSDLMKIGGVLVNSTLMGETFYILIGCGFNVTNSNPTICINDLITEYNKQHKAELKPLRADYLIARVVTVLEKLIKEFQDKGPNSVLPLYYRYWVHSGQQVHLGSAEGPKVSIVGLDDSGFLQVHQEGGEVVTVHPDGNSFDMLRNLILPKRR
Experimental: as §1, §2

S. aureus ATCC 49775 = test: Antimicrobial microbroth dilution assay, S. aureus; type: cell-based, Staphylococcus aureus; settings: at 8 μg/ml
Experimental: The biotin-triazoles were assessed for their antimicrobial activity using a microbroth dilution assay as recommended by the CLSI (Clinical and Laboratory Standards Institute, Document […]-A8, 2009, Wayne, Pa.) with cation-adjusted Mueller-Hinton broth (Trek Diagnostics Systems, U.K.). Compounds were dissolved using DMSO. Serial two-fold dilutions of each compound were made using DMSO as the diluent. Trays were inoculated with 5×10^4 CFU of each strain in a volume of 100 μL (final concentration of DMSO was 5% (v/v)), and incubated at 35° C. for 16-20 hours when the optical density of the growth cultures was measured by spectroscopy at wavelength 620 nm. A library of Gram negative and Gram positive microbes was employed. […] Inhibition of the growth of S. aureus ATCC 49775 was measured using a microbroth dilution assay with varying concentrations of BPL inhibitors. […] The antibiotic erythromycin was also included (X).

Enterococcus faecalis = test: Antimicrobial microbroth dilution assay, E. faecalis; type: cell-based
Experimental: (§3) The biotin-triazoles were assessed for their antimicrobial activity using a microbroth dilution assay as recommended by the CLSI (Clinical and Laboratory Standards Institute, Document […]-A8, 2009, Wayne, Pa.) with cation-adjusted Mueller-Hinton broth (Trek Diagnostics Systems, U.K.). Compounds were dissolved using DMSO. Serial two-fold dilutions of each compound were made using DMSO as the diluent. Trays were inoculated with 5×10^4 CFU of each strain in a volume of 100 μL (final concentration of DMSO was 5% (v/v)), and incubated at 35° C. for 16-20 hours when the optical density of the growth cultures was measured by spectroscopy at wavelength 620 nm. A library of Gram negative and Gram positive microbes was employed.

Enterococcus faecium = test: Antimicrobial microbroth dilution assay, E. faecium; type: cell-based
Experimental: as §3

M. tuberculosis BPL = M. tuberculosis BPL (Mycobacterium tuberculosis (strain ATCC 25618 / H37Rv), UniProt I6YFP0); test: BPL inhibition, M. tuberculosis BPL; type: biochemical, Mycobacteria tuberculosis
Chain of M. tuberculosis BPL (I6YFP0 whole entry, looked up): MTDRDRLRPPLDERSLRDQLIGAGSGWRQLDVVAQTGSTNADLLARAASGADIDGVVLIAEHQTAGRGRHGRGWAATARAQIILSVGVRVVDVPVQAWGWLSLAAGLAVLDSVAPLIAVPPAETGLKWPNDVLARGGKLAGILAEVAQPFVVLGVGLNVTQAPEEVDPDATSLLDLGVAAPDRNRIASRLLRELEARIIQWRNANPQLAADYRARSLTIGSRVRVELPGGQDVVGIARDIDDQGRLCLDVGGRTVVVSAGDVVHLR

[4] = calculated from IC50, [biotin]=5 μM, Km 1 μM, read-out: Ki SaBPL
[5] = read-out: Ki EcBPL (E. coli BPL)

For Cc1ccc2oc(=O)n(CCCCOP(=O)(O)OCCCCC[C@@H]3SC[C@@H]4NC(=O)N[C@@H]43)c2c1, the IC50 [1] was greater than 50 µM and the Ki [1, 4] was greater than 10 µM.
In the case of CC1(C)O[C@@H]2[C@H](O1)[C@@H](n1cnc3c(N)ncnc31)O[C@H]2Cn1cc(CCCCC[C@@H]2SC[C@@H]3NC(=O)N[C@@H]32)nn1 [3.25], the “fold less potent against SaBPL compared to biotinol-5′-AMP 2.02” value (“fold less potent … to biotinol-5′-AMP 2.02” for short) [1] is reported as 60 fold, the IC50 [1] is reported as 11.6 ± 2.2 µM and the “selectivity towards SaBPL over HsBPL (human BPL)” value [1] is reported as greater than 16 fold. The Ki ([1]; read-out: Ki SaBPL) was 1.83 ± 0.33 µM, the Ki [2] was greater than 90 µM and the Ki [2, 5] was greater than 30 µM. For the same compound, the Ki [3] was greater than 90 µM.
With Nc1ncnc2c1ncn2CCCCn1cc(CCCCC[C@@H]2SC[C@@H]3NC(=O)N[C@@H]32)nn1 [4.01] the “fold less potent … to biotinol-5′-AMP 2.02” value [1] was 22 fold, the “inhibition against SaBPL” value [1] was “micromolar inhibition” and the “selectivity towards SaBPL over EcBPL (E. coli BPL)” value [1] was “at least 400 fold”. For the same compound, the IC50 [1] was 4 ± 0.9 µM, the “selectivity towards SaBPL over HsBPL (human BPL)” value [1] was “at least 400 fold” and the Ki [1, 4] was 0.66 ± 0.15 µM. The IC50 [2] was greater than 200 µM, the Ki [2] was greater than 90 µM and the Ki [2, 5] was greater than 30 µM. It also gave a Ki [3] greater than 90 µM and an IC50 ([3]; in b132 the quantity is not named) greater than 200 µM.
With CC1(C)O[C@@H]2[C@H](O1)[C@@H](n1cnc3c(N)ncnc31)O[C@H]2Cn1cc(CCCC[C@@H]2SC[C@@H]3NC(=O)N[C@@H]32)nn1 [4.09] the Ki [1] was 7.53 ± 1.9 µM, the “fold less potent against SaBPL compared to triazole 3.25” value [1] was 4 fold and the “inhibition against SaBPL” value [1] was “micromolar inhibition”. For the same compound, the Ki [2] was greater than 10 µM and the Ki [3] was greater than 10 µM.
With Nc1ncnc2c1ncn2CCCCCn1cc(CCCC[C@@H]2SC[C@@H]3NC(=O)N[C@@H]32)nn1 [4.13] the Ki [1] was 2.86 ± 0.75 µM, the “fold less potent against SaBPL compared to 4.01” value [1] was 4 fold and the “inhibition against SaBPL” value [1] was “micromolar inhibition”. For the same compound, the Ki [2] was greater than 10 µM and the Ki [3] was greater than 10 µM.
O=C1N[C@H]2[C@H](CS[C@H]2CCCCCc2cn(CCCCOc3ccc4ccccc4c3)nn2)N1 [6.07] was tested, and the “fold less potent against SaBPL compared to 4.01” value [1] was 7 fold, the IC50 [1] was 7 ± 1 µM and the Ki [1, 4] was 1.17 ± 0.17 µM. The Ki [2, 5] was greater than 30 µM and the Ki [3] was greater than 30 µM.
Cc1ccc2oc(=O)n(CCCCn3cc(CCCCC[C@@H]4SC[C@@H]5NC(=O)N[C@@H]54)nn3)c2c1 [6.09] was tested, and the “fold increase in potency against SaBPL compared to 4.01” value [1] was 7 fold, the “fold less potent … to biotinol-5′-AMP 2.02” value [1] was 3 fold and the “selectivity towards SaBPL over EcBPL (E. coli BPL)” value [1] was greater than 1000 fold. For the same compound, the IC50 [1] was 0.53 ± 0.01 µM, the “selectivity towards SaBPL over HsBPL (human BPL)” value [1] was greater than 1000 fold and the Ki ([1]; read-out: Ki SaBPL) was 0.09 ± 0.02 µM. The Ki [2, 5] was greater than 30 µM, the Ki [3] was greater than 30 µM and the “prevention of cell growth of S. aureus ATCC 49775” value (S. aureus ATCC 49775) was 80%. For the same compound, the “inhibition of growth of Enterococcus faecalis” value (Enterococcus faecalis) was “no inhibition of growth” and the “inhibition of growth of Enterococcus faecium” value (Enterococcus faecium) was “no inhibition of growth”.
Work on Cc1ccc2oc(=O)n(CCCCc3noc(CCCCC[C@@H]4SC[C@@H]5NC(=O)N[C@@H]54)n3)c2c1 [compound 2, 3-[4-[5-[5-[(3aS,4S,6aR)-2-oxo-1,3,3a,4,6,6a-hexahydrothieno[3,4-d]imidazol-4-yl]pentyl]-1,2,4-oxadiazol-3-yl]butyl]-5-methyl-1,3-benzoxazol-2-one] yielded a Ki [1] of 2.2 ± 0.8 µM and a Ki (M. tuberculosis BPL) of 290 ± 16 µM.
Work on biotin alkyne [3.12] yielded a Ki ([1]; read-out: Ki SaBPL) of 0.33 ± 0.05 µM.
